Literature values, collected in patent US20250367333A1, “LIPID NANOPARTICLE FOR RADIATION THERAPY, MANUFACTURING METHOD, COMBINATION COMPOSITION, AND KIT” (KABUSHIKI KAISHA TOSHIBA, priority 2024, published 2025).

Conditions: radioactive material

In the case of `[At]` [astatine], the half-life is given as “approximately 7 hours”.
